Results from patent US20090202660A1, “Agents and Methods for Osteogenic Oxysterols Inhibition of Oxidative Stress on Osteogenic Cellular Differentiation” (The Regents of the University of California, priority 2005, published 2009).

What was measured:
[1] = tested on: osteocalcin mRNA; test: Northern blotting for osteocalcin mRNA in M2 cells; format: cell-based, mouse; details: for osteocalcin gene expression: M2 cells in osteogenic medium, up to 14 days; for osteocalcin expression, synergy with osteogenic oxysterols: BMP 50 ng/ml with 22S+20S (SS, 2.5 μM), eight days
Protocol: RNA isolation and Northern blot analysis—Following treatment of cells under appropriate experimental conditions, total RNA was isolated using the RNA isolation kit from Stratagene (La Jolla, Calif., U.S.A.). Total RNA ([…]) was run on a 1% agarose/formaldehyde gel and transferred to Duralon-UV membranes (Strategene, Calif., U.S.A.) and cross-linked with UV light. The membranes were hybridized overnight at 60 degree C. with ^32P-labeled mouse osteocalcin cDNA probe, mouse lipoprotein lipase (LPL), mouse adipocyte protein 2 (aP2) PCR-generated probes, human 28S or 18S rRNA probes obtained from Geneka Biotechnology (Montreal, Quebec, Canada) and Maxim Biotech (San Francisco, Calif., U.S.A.), respectively. The PCR products were generated using primer sets synthesized by Invitrogen (Carlsbad, Calif., U.S.A.) with the following specifications: mouse aP2 gene (accession no. M13261); sense (75-95) 5′-[…]-3′, antisense (362-383) 5′-[…]-3′, generating a PCR product of 309 base pairs. Mouse LPL (accession no. XM—134193); sense (1038-1058) 5′-[…]-3′, antisense (1816-1836) 5′-[…]-3′, generating a PCR product of 799 base pairs. […] Following hybridization, the blots were washed twice at room temperature with 2×SSC+0.1% SDS, and then twice at 60 degree C. with 0.5×SSC+0.1% SDS, and exposed to X-ray film. The extent of gene induction was determined by densitometry.
After 4 and 8 days, total RNA from duplicate samples was isolated and analyzed for osteocalcin (Osc) and 28S rRNA expression by Northern blotting as described. FIG. 3E is a radiogram of Northern blotting for osteocalcin mRNA in M2 cells exposed to a control or combination of oxysterols for 4 or 8 days. FIG. 3F is a bar graph depicting the relative demsometric units of osteocalcin mRNA in M2 cells exposed to a control or combination of oxysterols for 4 or 8 days. Data from densitometric analysis of the Northern blot is shown in (F) as the average of duplicate samples, normalized to 28S rRNA.
RNA Isolation and Northern Blot Analysis—Total RNA was isolated using the RNA isolation kit from Stratagene (La Jolla, Calif., USA). Northern blotting and analysis of osteocalcin mRNA and 18S rRNA expression was performed as previously described (23).

[2] = tested on: M2 cells; test: Troglitazone-induced adipogenesis, oil Red O staining and adipocyte count; format: cell-based, mouse; details: troglitazone 10 μM, oxysterols 10 μM, 8-10 days
Protocol: (§1) Von Kossa and oil red O staining—Matrix mineralization in cell monolayers was detected by silver nitrate staining as previously described. Oil red O staining for detection of adipocytes was performed as previously described.
Test 1: M2 cells at 90% confluence were treated with vehicle (C), PPAR-γ activator, troglitazone 10 uM (Tro), alone or in combination with 10 μM oxysterols 20S-, 22R-, or 25S-hydroxycholesterol. After 8 days, adipocytes were identified by oil Red 0 staining and quantified by counting under a phase contrast microscope. FIG. 6A is a bar graph depicting the effect of oxysterols on reducing adipogenesis of MSC.
Test 2: (A) M2 cells at confluence were treated in RPMI containing 10% FBS with control vehicle or 10 μM troglitazone (Tro) in the absence or presence of 10 μM 20S or 22S oxysterols. After 10 days, adipocytes were visualized by oil Red O staining and quantified by light microscopy, shown in (B). […] (C) M2 cells were treated at confluence with 10 μM Tro, alone or in combination with 10 μM 20S oxysterol. After 10 days, total RNA was isolated and analyzed for lipoprotein lipase (LPL), adipocyte P2 gene (aP2) or 18S rRNA expression by Northern blotting as described (Ref). Data from densitometric analysis of the Northern blot is shown in (D) as the average of duplicate samples, normalized to 18S rRNA.

[3] = tested on: M2-10B4 marrow stromal cells; test: Colorimetric alkaline phosphatase (ALP) activity assay on whole cell extracts; details: for alkaline phosphatase activity (induction): M2 cells in osteogenic medium, oxysterols 0.5-10 μM, 3-4 days; for alkaline phosphatase activity: ligands used at 10 μM, control 18±2, ±SD; for Enzyme Activity (units/mg total cellular protein) ± SD: alkaline phosphatase, oxysterols 5 μM, 4 days, untreated 6 ± 3; for inhibition of oxysterol-induced alkaline phosphatase activity: M2 cells pretreated with inhibitor, then 22R+20S oxysterols, 3 days; for alkaline phosphatase activity, synergy with oxysterols: marrow stromal cells, BMP with oxysterols
Protocol: Alkaline phosphatase activity assay: Colorimetric alkaline phosphatase (ALP) activity assay on whole cell extracts was performed as previously described.
Test 1: M2 cells at confluence were treated with control vehicle (C), or 10 µM oxysterols, in an osteogenic medium consisting of RPMI 1640 to which 10% fetal bovine serum (FBS), 50 µg/ml ascorbate and 3 mM beta-glycerophosphate (□GP) were added. After 3 days of incubation, alkaline phosphatase (ALP) activity was determined in cell homogenates by a colorimetric assay.
M2 cells at confluence were treated in osteogenic medium with control vehicle (C) or a combination of 22R and 20S oxysterols, at the indicated concentrations. ALP activity was measured after 3 days as described above.
Test 2: M2 cells were grown in RPMI medium containing 10% fetal bovine serum (FBS). At confluence, the cells were treated in RPMI containing 5% FBS plus ascorbate at 50 μg/ml and β-glycerophosphate at 3 mM to induce osteoblastic differentiation. Adipogenic differentiation was induced by treating the cells in growth medium plus 10˜M troglitazone. A vehicle (C) or oxysterol treatment was applied to cells in a variety of doses (in μM): 20S-Hydroxycholesterol, 25-Hydroxycholesterol, 22R-Hydroxycholesterol; 22S-Hydroxycholesterol; 7-ketocholesterol. Cells were always treated at 90% confluence. After 4 days, alkaline phosphatase activity was determined in whole cell lysates and normalized to protein. Alternatively, MSC cultures were prepared and treated with oxysterols as described above. Cells were treated at 90% confluence with the combination of 22R-Hydroxycholesterol and 20S-Hydroxycholesterol, each at 5 μM, for 4 to 96 hours. The oxysterols where removed and fresh media without oxysterols was added for a total duration of 96 hours. Alkaline phosphatase activity was measured in whole cell extracts and normalized to protein.
Cells were treated with the oxysterols (5 μM) for 4 days after which they were collected and analyzed by colorimetric assay for alkaline phosphatase activity. Results from a representative experiment are shown as the average of quadruplicate determination ±SD.

[4] = tested on: marrow stromal cells; test: Markers of osteogenic differentiation in marrow stromal cells (ALP, osteocalcin mRNA, mineral formation); format: cell-based, mouse; details: for osteogenic property (markers of osteoblastic differentiation): alone or in combination with originally described oxysterols
Protocol: Next, a combination of 22R and 20S oxysterols (RS, 2.5 μM each) were added in the presence or absence of SC as indicated. After 3 days, ALP activity was measured as described earlier. […] (B) M2 cells were treated as described in (A) and after 10 days matrix mineralization in cultures was quantified by a ^45Ca incorporation assay as described earlier. […] (C) M2 cells were pretreated with 20 μM SC for 4 hours, followed by the addition of RS in the presence or absence of SC as described above. After 8 days, total RNA was isolated and analyzed for osteocalcin (Osc) and […] expression by Northern blotting as previously described. Data from densitometric analysis of the Northern blot is shown in (D) as the average of duplicate samples, normalized to 18S rRNA. (E) M2 cells at confluence were pretreated for 2 hours with control vehicle (C), or PLA2 inhibitors ACA (25 μM) and AACOCF3 (AAC, 20 μM), in osteogenic medium. Next, a combination of 22R and 20S oxysterols (RS, 2.5 μM) was added in the presence or absence of the inhibitors as indicated. After 3 days, ALP activity was measured as previously described. […] (F) M2 cells were treated as described in (E). After 10 days, matrix mineralization in cultures was quantified using a ^45Ca incorporation assay as previously described. Results from a representative of three experiments are shown, reported as the mean of quadruplicate determinations±SD, normalized to protein concentration (p<0.01 for RS vs. RS+ACA and RS+AAC).
The purpose of the study was to identify other osteogenic and anti-adipogenic oxysterols based on the chemical structure of previously identified oxysterols. We tested the ability of such candidate oxysterol molecules to induce the formation of osteoblastic cells in cultures of marrow stromal cells, which are progenitors of osteoblastic cells that make bone. In order to assess osteogenic differentiation of cells, one or more markers of osteogenic differentiation were measured in untreated cells and cells treated with the test oxysterols. These markers included: alkaline phosphatase activity, osteocalcin mRNA expression and mineral formation in cultures of marrow stromal cells. Activation of either one or more than one marker by a single or combination oxysterols is indicative of their osteogenic property.

[5] = tested on: M2-10B4 marrow stromal cells; test: Matrix mineralization (45Ca incorporation assay, von Kossa staining); format: cell-based, mouse; details: for mineralization: M2 cells in osteogenic medium, 10-14 days; for inhibition of oxysterol-induced mineralization: M2 cells pretreated with inhibitor, then 22R+20S oxysterols, 10 days; for mineralization, synergy with oxysterols: marrow stromal cells, BMP with oxysterols
Protocol: as §1
^45Ca incorporation assay—Matrix mineralization in cell monolayers was quantified using the ^45Ca incorporation assay as previously described.
After 14 days, mineralization was identified by a von Kossa staining, which appears black. FIG. 3C is a depiction of von Kossa staining of M2 cells exposed to various conditions. […]

CC(C)CCC[C@@H](C)[C@H]1CC[C@H]2[C@@H]3CC=C4[C@@H](O)[C@@H](O)CC[C@]4(C)[C@H]3CC[C@]12C [4beta-hydroxycholesterol]
osteocalcin mRNA ([1]; M2-10B4 cells treated for eight days, FIG. 20): moderate increase

CC(C)CCC[C@@H](C)[C@H]1CC[C@H]2[C@@H]3C(=O)C=C4C[C@@H](O)CC[C@]4(C)[C@H]3CC[C@]12C [7-ketocholesterol, reference compound]
inhibition of adipogenesis [2]: unable to inhibit adipogenesis | alkaline phosphatase activity (induction) [3]: did not induce alkaline phosphatase activity

CC(C)CCC[C@@H](C)[C@H]1CC[C@H]2[C@@H]3[C@H](O)C=C4C[C@@H](O)CC[C@]4(C)[C@H]3CC[C@]12C [7alpha-hydroxycholesterol, reference compound]
osteogenic property (markers of osteoblastic differentiation) [4]: did not appear to affect any measures of osteoblastic differentiation

CC(C)CC[C@@H](O)[C@@H](C)[C@H]1CC[C@H]2[C@@H]3CC=C4C[C@@H](O)CC[C@]4(C)[C@H]3CC[C@]12C [22R-hydroxycholesterol]
mineralization [5]: unable to induce | osteocalcin gene expression [1]: unable to induce | inhibition of adipogenesis [2]: inhibited adipogenesis | alkaline phosphatase activity (induction) [3]: induced alkaline phosphatase activity | alkaline phosphatase activity ([3]; M2 cells): 45±5 activity units/mg protein

CC(C)CC[C@H](O)[C@@H](C)[C@H]1CC[C@H]2[C@@H]3CC=C4C[C@@H](O)CC[C@]4(C)[C@H]3CC[C@]12C [22S-hydroxycholesterol]
mineralization [5]: unable to induce | osteocalcin gene expression [1]: unable to induce | inhibition of adipogenesis [2]: inhibited adipogenesis | alkaline phosphatase activity (induction) [3]: induced alkaline phosphatase activity

CC(C)C(O)CC[C@@H](C)[C@H]1CC[C@H]2[C@@H]3CC=C4C[C@@H](O)CC[C@]4(C)[C@H]3CC[C@]12C (stereo partly shown) [24-hydroxycholesterol]
osteogenic property (markers of osteoblastic differentiation) [4]: osteoinductive | Enzyme Activity (units/mg total cellular protein) ± SD [3]: 250 ± 20 units/mg total cellular protein

C[C@H](CC[C@@H]1OC1(C)C)[C@H]1CC[C@H]2[C@@H]3CC=C4C[C@@H](O)CC[C@]4(C)[C@H]3CC[C@]12C [24S,25-epoxycholesterol]
osteogenic property (markers of osteoblastic differentiation) [4]: osteoinductive | Enzyme Activity (units/mg total cellular protein) ± SD [3]: 1,588 ± 19 units/mg total cellular protein

C[C@@H](CO)CCC[C@@H](C)[C@H]1CC[C@H]2[C@@H]3CC=C4C[C@@H](O)CC[C@]4(C)[C@H]3CC[C@]12C [26-hydroxycholesterol]
osteogenic property (markers of osteoblastic differentiation) [4]: osteoinductive | Enzyme Activity (units/mg total cellular protein) ± SD [3]: 655 ± 93 units/mg total cellular protein

CCCCC/C=C\C/C=C\C/C=C\C/C=C\CCCC(=O)C(F)(F)F [AACOCF3, reference compound]
inhibition of oxysterol-induced mineralization [5]: inhibited | inhibition of oxysterol-induced alkaline phosphatase activity [3]: inhibited

CCCCCc1ccc(/C=C/C(=O)Nc2ccccc2C(=O)O)cc1 [ACA, reference compound]
inhibition of oxysterol-induced mineralization [5]: inhibited | inhibition of oxysterol-induced alkaline phosphatase activity [3]: inhibited

CS(=O)(=O)Nc1ccc([N+](=O)[O-])cc1OC1CCCCC1 [NS-398, reference compound]
highest non-toxic dose ([4]; M2 cells): 20 µM | inhibition of the osteogenic effects of oxysterol combinations ([4]; SC-560 at 1-20 μM, NS-398 at 20 μM): negligible inhibitory effects

COc1cccc(-c2cc(=O)c3ccccc3o2)c1N [PD98059, reference compound]
inhibition of oxysterol-induced mineralization [5]: inhibited | inhibition of oxysterol-induced osteocalcin gene expression ([1]; M2 cells pretreated with inhibitor, then 22R+20S oxysterols, 8 days): not

O=S(=O)(c1ccccc1)N(CC(F)(F)F)c1ccc(C(O)(C(F)(F)F)C(F)(F)F)cc1 [TO, TO-901317, reference compound]
mineralization [5]: did not induce | osteocalcin gene expression [1]: did not induce | inhibition of alkaline phosphatase activity ([3]; M2 cells, TO at 1-10 μM): dose-dependent inhibition | alkaline phosphatase activity ([3]; M2 cells): 3±0.5 activity units/mg protein

BMP14: bone morphogenic protein 14
mineralization, synergy with oxysterols [5]: synergistically induced | osteocalcin expression, synergy with osteogenic oxysterols [1]: synergistic induction | alkaline phosphatase activity, synergy with oxysterols [3]: synergistically induced

B1: BMP7: bone morphogenic protein 7 (protein, UniProt P18075 293-431, looked up)
Bone morphogenetic protein 7: STGSKQRSQNRSKTPKNQEALRMANVAENSSSDQRQACKKHELYVSFRDLGWQDWIIAPEGYAAYYCEGECAFPLNSYMNATNHAIVQTLVHFINPETVPKPCCAPTQLNAISVLYFDDSSNVILKKYRNMVVRACGCH
mineralization, synergy with oxysterols [5]: synergistically induced | osteocalcin expression, synergy with osteogenic oxysterols [1]: synergistic induction | alkaline phosphatase activity, synergy with oxysterols [3]: synergistically induced
